Series [1] relates to IL-2. Briefly: Th1/Th2 cytokine profiling assay: IL-2. Type of series: cell-based, Balb/c mice. The settings on record: Ovalbumin-restimulated spleen cells; peptide 10 micrograms per ml; 72 hours.
Series [2] is described as follows: Cytotoxicity testing in MRC-5 cells (CellTiter 96). Conditions: human, 6 days incubation, read-out: % Cell viability. The format is cell-based, human. The protocol:
(§1) The following day, peptide was added and tested in duplicates.

Series [3] relates to Pseudomonas aeruginosa. The format is cell-based. The settings on record: 5 micrograms per ml.
Series [4] relates to Primary Human endothelial cells (HUVEC). As to the kind of experiment: Endothelial cell migration assay. The format is cell-based. The settings on record: peptide 10 micrograms per ml, 22 hours.
The test system of series [5] is IL-4. As to the kind of experiment: Th1/Th2 cytokine profiling assay: IL-4. The format is cell-based, Balb/c mice. The settings on record: Ovalbumin-restimulated spleen cells; peptide 10 micrograms per ml; 72 hours.
For series [6], the system named is HCMV strain AD169. Briefly: HCMV plaque reduction assay in MRC-5 cells. Type of series: cell-based, human cytomegalovirus. Conditions: peptide 10 micrograms per ml, 7-10 days. An excerpt: Ganciclovir was used as positive control.
In general terms: In a plaque reduction assay, fewer plaques than in the control indicate reduced infectivity or spread.

For series [7], the system named is Human Peripheral Blood Mononuclear Cells (PBMC). As to the kind of experiment: T cell proliferation assay (PHA, 3H-thymidine). Type of series: cell-based. Conditions: peptide 10 micrograms per ml, 3H-thymidine incorporation. In general terms: Incorporation of labelled thymidine or its analogues reports DNA synthesis.
For series [8] the test system is unchanged. Briefly: B cell proliferation assay (SAC plus Interleukin-2, 3H-thymidine). Type of series: cell-based. The settings on record: peptide 10 micrograms per ml, 3H-thymidine incorporation.
Series [9] deals with A549 cells. As to the kind of experiment: Apoptosis induction assay (Annexin-5). The format is cell-based, human. The settings on record: peptide 10 micrograms per ml, 24 hours.
Series [10] concerns HIV-1IIB. Briefly: HIV-1 antiviral assay (CPE reduction, MTS) in CEM-SS cells. Type of series: cell-based. The settings on record: peptide 10 micrograms per ml, 6 days post-infection.
The test system of series [11] is A549 cells. As to the kind of experiment: Propidium iodide cell cycle assay. Type of series: cell-based, human. Conditions: peptide 10 micrograms per ml, 24 hours, FACS.
Series [12] relates to Streptococcus pneumoniae. Type of series: cell-based. The settings on record: 5 micrograms per ml.
The subject of series [13] is HUVEC. As to the kind of experiment: Endothelial tube formation assay. Type of series: cell-based, human. The settings on record: peptide 10 micrograms per ml, 20 hours. The source says:
Positive control was vehicle only.

Series [14] relates to MRSA. Type of series: cell-based, Staphylococcus Aureus. The settings on record: 5 micrograms per ml.
Series [15] concerns hepatitis B virus (HBV) ayw strain. As to the kind of experiment: HBV replication assay in HepG2-2.2.15 cells (TaqMan PCR of secreted HBV DNA). The format is cell-based. The settings on record: peptide 10 micrograms per ml, six days, HBV DNA by TaqMan PCR. The protocol:
HepG2-2.2.15 is a stable cell line containing the hepatitis B virus (HBV) ayw strain genome (ATCC Cat. No. CRL-11997). Antiviral compounds blocking any late step of viral replication such as transcription, translation, pregenome encapsidation, reverse transcription, particle assembly and release can be identified and characterized using this cell line.
HepG2-2.2.15 cells were plated in 96-well microtiter plates. After 16-24 hours the confluent monolayer of HepG2-2.2.15 cells was washed and the medium was replaced with complete medium containing test peptide—10 micrograms per ml—in duplicate. […] Three days later the culture medium was replaced with fresh medium containing the peptide. Six days following the initial administration of the peptide, the cell culture supernatants was collected, treated with pronase and DNAse and then used in a real-time quantitative TaqMan PCR assay. The PCR-amplified HBV DNA was detected in real-time by monitoring increases in fluorescence signals that result from the exonucleolytic degradation of a quenched fluorescence probe molecule that hybridizes to the amplified HBV DNA. For each PCR amplification, a standard curve was simultaneously generated using dilutions of purified HBV DNA. Antiviral activity was calculated from the reduction in HBV DNA levels (% virus control). […]

Series [16] in a line: Cytotoxicity (dye uptake cell viability) in HBV assay. The settings on record: human, HepG2-2.2.15 cells, peptide 10 micrograms per ml. Type of series: cell-based. How it is done:
HepG2-2.2.15 cells were plated in 96-well microtiter plates. After 16-24 hours the confluent monolayer of HepG2-2.2.15 cells was washed and the medium was replaced with complete medium containing test peptide—10 micrograms per ml—in duplicate. Lamivudine (3TC) was used as the positive control, while media alone was added to the cells as a negative control (virus control). Three days later the culture medium was replaced with fresh medium containing the peptide. Six days following the initial administration of the peptide, the cell culture supernatants was collected, treated with pronase and DNAse and then used in a real-time quantitative TaqMan PCR assay. The PCR-amplified HBV DNA was detected in real-time by monitoring increases in fluorescence signals that result from the exonucleolytic degradation of a quenched fluorescence probe molecule that hybridizes to the amplified HBV DNA. For each PCR amplification, a standard curve was simultaneously generated using dilutions of purified HBV DNA. Antiviral activity was calculated from the reduction in HBV DNA levels (% virus control). A novel dye uptake assay was then employed to measure cell viability, which is used to calculate toxicity (% cell control).

The subject of series [17] is A549 cells. Briefly: Apoptosis prevention assay (C2 ceramide, Annexin-5). The format is cell-based, human. The settings on record: 30 min pretreatment with peptide 10 micrograms per ml, then C2 ceramide.
Series [18] has as its system IFNγ. As to the kind of experiment: Th1/Th2 cytokine profiling assay: IFNγ. The format is cell-based, Balb/c mice. Conditions: Ovalbumin-restimulated spleen cells; peptide 10 micrograms per ml; 72 hours.
For series [19], the system named is TNF-a. As to the kind of experiment: Th1/Th2 cytokine profiling assay: TNF-a. Type of series: cell-based, Balb/c mice. Conditions: Ovalbumin-restimulated spleen cells; peptide 10 micrograms per ml; 72 hours.
The test system of series [20] is TNF alpha. Briefly: TNF alpha production assay in LPS-stimulated macrophages (ELISA). The format is cell-based, human. Conditions: PBMC-derived macrophages, peptide 10 micrograms per ml, lipopolysaccharide 200 ng/ml, overnight. The source says:
Not stimulated macrophages served as negative background control.
(An ELISA detects its analyte on a solid surface through an enzyme-linked reagent.)

Series [21] has as its system RAW 264.7 cells. Briefly: Phagocytosis assay (Fluorescein-labeled Escherichia coli, flow cytometry). The format is cell-based, mouse. The settings on record: peptide 10 micrograms per ml, 30 min preincubation, 60 min ingestion.
Series [22] can be described thus: Cytotoxicity (MTS cell viability) in HIV-1 experiments. The settings on record: human, CEM-SS cells.
Series [23] relates to IL-5. Briefly: Th1/Th2 cytokine profiling assay: IL-5. Type of series: cell-based, Balb/c mice. The settings on record: Ovalbumin-restimulated spleen cells; peptide 10 micrograms per ml; 72 hours.
Series [24] relates to MRC-5 cells. As to the kind of experiment: Cytotoxicity testing in MRC-5 cells (CellTiter 96). The format is cell-based, human. The settings on record: 6 days incubation. The protocol:
as §1

Series [25] concerns CEM-SS cells. Briefly: Cytotoxicity (MTS cell viability) in HIV-1 experiments. Conditions: peptide 10 micrograms per ml, MTS.

Where a SMILES comes first, the peptide text is derived from it.

As for `CC(C)C[C@H](NC(=O)[C@@H]1CCCN1)C(=O)NCC(N)=O` [MSHRIF, Pro-Leu-Gly-NH2] (H-Pro-Leu-Gly-NH2), the “IL-2 spleen cells (% of control)” value in series [1] is listed as 0.0 % of control. Moreover, in [2], the viability (as a rule, the share of living cells, or the viability signal relative to a control) at 144 h came to 100%. The % inhibition (in general, the percentage by which the read-out fell short of the control) in series [3] is on record as 100.0%. The “% inhibition of migration” value in series [4] is given as −8%. Further, in series [5], the “IL-4 spleen cells; TH2 response (% of control)” value is recorded as 0.0 % of control. Also, the “% plaque reduction” value in series [6] turned out to be 0.0%. Besides, the “% of PHA induced control” value in [7] stood at 80.8%. Besides, the “% of SAC/IL2 induced control” value in [8] came out at 79.2%. In addition, in [9], the “% of induction” value is 0.9%. For the same compound, the “% CPE reduction in HIV-1 infected CEM-SS cells” value in series [10] is recorded as 0.0%. Further, in series [11], the “Cell cycle analysis G0/G1” value is 56.9, the “Cell cycle analysis G2/M” value is on record as 11.7 and the “Cell cycle analysis S” value was found to be 31.4. Moreover, in series [12], the “% inhibition” value amounted to 0.0%. Further, in [13], the “% inhibition of tube formation” value is recorded as 9.0%. Besides, in series [14], the “% inhibition” value is reported as 0.0%. In addition, the “% inhibition of HBV replication in HEP G2 cells” value in series [15] came out at 10.9%. Besides, the viability at 144 h, 10 micrograms per ml in [16] worked out at 100%. Besides, the “% prevention of ceramide induced apoptosis” value in series [17] was determined as 0.0%. For the same compound, the “IFNγ spleen cells; TH1 response (% of control)” value in series [18] is 88.0 % of control. The “TNF-a spleen cells; TH1 response (% of control)” value in series [19] is on record as 81.4 % of control. Further, in [20], the “% of LPS induction” value turned out to be 88.2%. Moreover, the “% of control phagocytosis” value in series [21] was found to be 145.7%. In addition, the viability at 10 micrograms per ml in [22] turned out to be 98.4%. The “IL-5 spleen cells; TH2 response (% of control)” value in series [23] is recorded as 56.7 % of control.

In the case of `Nc1nc(O)c2ncn(COC(CO)CO)c2n1` [Ganciclovir, reference compound], in [24], the “% Cell viability” value is recorded as 100%.

Consider `Cc1cn([C@H]2C[C@H](N=[N+]=[N-])[C@@H](CO)O2)c(=O)[nH]c1=O` [AZT, reference compound], for which, in series [10], the “% CPE reduction in HIV-1 infected CEM-SS cells” value was determined as 99%. Moreover, in [25], the “% Cell viability” value is 97%.

These data come from patent publication US20100190724A1, “USE OF MELANOCYTE-STIMULATING HORMONE RELEASE-INHIBITING FACTOR AS A THERAPEUTIC AGENT IN THE TREATMENT OF PSEUDOMONAS AERUGINOSA INFECTION” (priority 2007, published 2010).
